Data reported in patent US20220306695A1, “COMPSTATIN ANALOGUES AND THEIR MEDICAL USES” (priority 2019, published 2022).
Positions of bridges follow the written chain, without caps; N, C: chain ends. Non-standard residues stand in square brackets, D forms with d. Residues, ends and D or L forms follow the SMILES beside them. Trp(1-Me) = Cn1cc(C[C@H](N)C(=O)O)c2ccccc21; 1Nal = N[C@@H](Cc1cccc2ccccc12)C(=O)O; 2Nal = N[C@@H](Cc1ccc2ccccc2c1)C(=O)O; Sar = CNCC(=O)O

Tests used:
[1] = system: classical complement pathway; test: In vitro haemolysis assay (inhibition of classical complement pathway); format: cell-based, human; conditions: Table 3; human serum, sensitized sheep red blood cells; read-out: IC50[nM], in vitro analysis of inhibition of hemolysis
In short: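 Serially diluted compound (9 points) was preincubated 15 min at room temperature with diluted human serum, titrated per batch to give 70-90% maximal haemolysis, in Tris/casein buffer pH 7.4 with Mg2+/Ca2+. Antibody-sensitized sheep erythrocytes were then added for 30 min at 37° C, and the reaction was stopped with EDTA. Haemolysis was read at A405, with IC50 from 4PL fit.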

[2] = Solubility test at 10 mg/mL (visual inspection and light scattering); format: physicochemical; conditions: for Solubility, Condition 1 Acetate pH 4: 10 mg/mL compound in 100 mM acetate pH 4; for Solubility, Condition 2 Acetate pH 5: 10 mg/mL compound in 100 mM acetate pH 5; for Solubility, Condition 3 Phosphate pH 6: 10 mg/mL compound in 100 mM phosphate pH 6; for Solubility, Condition 4 Phosphate pH 7: 10 mg/mL compound in 100 mM phosphate pH 7; for Solubility, Condition 5 Phosphate pH 7.5: 10 mg/mL compound in 100 mM phosphate pH 7.5

| Compound | IC50 [1] [nM] | Solubility, Condition 1 Acetate pH 4 [2] | Solubility, Condition 2 Acetate pH 5 [2] | Solubility, Condition 3 Phosphate pH 6 [2] | Solubility, Condition 4 Phosphate pH 7 [2] | Solubility, Condition 5 Phosphate pH 7.5 [2] |
| --- | --- | --- | --- | --- | --- | --- |
| CC[C@H](C)[C@@H]1NC(=O)[C@@H](NC(=O)[C@H](Cc2ccccc2)NC(=O)[C@H](C)NC(=O)[C@H](CO)NC(=O)CNC(=O)[C@H](CCC(=O)O)NC(C)=O)CSSC[C@@H](C(=O)N[C@H](C(=O)N[C@@H](CCC(=O)O)C(N)=O)[C@@H](C)O)NC(=O)[C@H](CCCNC(=N)N)NC(=O)[C@H](Cc2c[nH]cn2)NC(=O)[C@H](CCC(=O)O)NC(=O)CNC(=O)[C@H](Cc2c[nH]c3ccccc23)NC(=O)[C@H](CC(=O)O)NC(=O)[C@H](CCC(N)=O)NC(=O)[C@H](Cc2cccc3ccccc23)NC1=O [Compound 56] (Ac-EGSAFCI[1Nal]QDWGEHRCTE-NH2; disulfide 6-16) | < 100 | − (denotes lack of solubility at the given condition, as UV absorbance at 340 nm exceeds 0.1 AU and/or it is visibly turbid or contains particles.) | − (denotes lack of solubility at the given condition, as UV absorbance at 340 nm exceeds 0.1 AU and/or it is visibly turbid or contains particles.) | + (denotes solubility at the given condition, as determined by UV absorbance being less than 0.1 AU at 340 nm and the sample being clear when manually inspected.) | + (denotes solubility at the given condition, as determined by UV absorbance being less than 0.1 AU at 340 nm and the sample being clear when manually inspected.) | + (denotes solubility at the given condition, as determined by UV absorbance being less than 0.1 AU at 340 nm and the sample being clear when manually inspected.) |
| CC[C@H](C)[C@@H]1NC(=O)[C@@H](NC(=O)[C@@H](NC(=O)[C@H](CCC(=O)O)NC(=O)[C@H](CO)NC(C)=O)[C@@H](C)CC)CSSC[C@@H](C(=O)N[C@H](C(=O)N[C@@H](CCC(=O)O)C(=O)N[C@@H](C)C(N)=O)[C@@H](C)O)NC(=O)[C@H](CCCNC(=N)N)NC(=O)[C@H](Cc2c[nH]cn2)NC(=O)[C@H](CCC(=O)O)NC(=O)CNC(=O)[C@H](Cc2c[nH]c3ccccc23)NC(=O)[C@H](CC(=O)O)NC(=O)[C@H](CCC(N)=O)NC(=O)[C@H](Cc2c[nH]c3ccccc23)NC1=O [Compound 32] (Ac-SEICIWQDWGEHRCTEA-NH2; disulfide 4-14) | < 100 | − (denotes lack of solubility at the given condition, as UV absorbance at 340 nm exceeds 0.1 AU and/or it is visibly turbid or contains particles.) | − (denotes lack of solubility at the given condition, as UV absorbance at 340 nm exceeds 0.1 AU and/or it is visibly turbid or contains particles.) | − (denotes lack of solubility at the given condition, as UV absorbance at 340 nm exceeds 0.1 AU and/or it is visibly turbid or contains particles.) | + (denotes solubility at the given condition, as determined by UV absorbance being less than 0.1 AU at 340 nm and the sample being clear when manually inspected.) | + (denotes solubility at the given condition, as determined by UV absorbance being less than 0.1 AU at 340 nm and the sample being clear when manually inspected.) |
| CC[C@H](C)[C@H](NC(=O)[C@H](C)NC(=O)[C@H](CO)NC(C)=O)C(=O)N[C@H]1CSSC[C@@H](C(=O)N(C)CC(=O)N[C@@H](CCC(=O)O)C(N)=O)NC(=O)[C@H](CCCNC(=N)N)NC(=O)[C@H](Cc2c[nH]cn2)NC(=O)[C@H](CCC(=O)O)NC(=O)CNC(=O)[C@H](Cc2c[nH]c3ccccc23)NC(=O)[C@H](CC(=O)O)NC(=O)[C@H](CCC(N)=O)NC(=O)[C@H](Cc2c[nH]c3ccccc23)NC(=O)[C@H]([C@@H](C)CC)NC1=O [Compound 41] (Ac-SAICIWQDWGEHRC[Sar]E-NH2; disulfide 4-14) | < 250 | − (denotes lack of solubility at the given condition, as UV absorbance at 340 nm exceeds 0.1 AU and/or it is visibly turbid or contains particles.) | − (denotes lack of solubility at the given condition, as UV absorbance at 340 nm exceeds 0.1 AU and/or it is visibly turbid or contains particles.) | + (denotes solubility at the given condition, as determined by UV absorbance being less than 0.1 AU at 340 nm and the sample being clear when manually inspected.) | + (denotes solubility at the given condition, as determined by UV absorbance being less than 0.1 AU at 340 nm and the sample being clear when manually inspected.) | + (denotes solubility at the given condition, as determined by UV absorbance being less than 0.1 AU at 340 nm and the sample being clear when manually inspected.) |
| CC[C@H](C)[C@H](NC(C)=O)C(=O)N[C@H]1CSSC[C@@H](C(=O)N[C@H](C(=O)NCC(=O)N[C@@H](C)C(=O)N[C@@H](CCC(=O)O)C(=O)N[C@@H](CO)C(N)=O)[C@@H](C)O)NC(=O)[C@H](CCCNC(=N)N)NC(=O)[C@H](Cc2c[nH]cn2)NC(=O)[C@H](CCC(=O)O)NC(=O)CNC(=O)[C@H](Cc2c[nH]c3ccccc23)NC(=O)[C@H](CC(=O)O)NC(=O)[C@H](CCC(N)=O)NC(=O)[C@H](Cc2ccc3ccccc3c2)NC(=O)[C@H]([C@@H](C)CC)NC1=O [Compound 52] (Ac-ICI[2Nal]QDWGEHRCTGAES-NH2; disulfide 2-12) | < 100 | − (denotes lack of solubility at the given condition, as UV absorbance at 340 nm exceeds 0.1 AU and/or it is visibly turbid or contains particles.) | − (denotes lack of solubility at the given condition, as UV absorbance at 340 nm exceeds 0.1 AU and/or it is visibly turbid or contains particles.) | + (denotes solubility at the given condition, as determined by UV absorbance being less than 0.1 AU at 340 nm and the sample being clear when manually inspected.) | + (denotes solubility at the given condition, as determined by UV absorbance being less than 0.1 AU at 340 nm and the sample being clear when manually inspected.) | + (denotes solubility at the given condition, as determined by UV absorbance being less than 0.1 AU at 340 nm and the sample being clear when manually inspected.) |
| CC[C@H](C)[C@@H]1NC(=O)[C@@H](NC(=O)[C@@H](NC(=O)[C@H](CCC(=O)O)NC(C)=O)[C@@H](C)CC)CSSC[C@@H](C(=O)N[C@H](C(=O)N[C@@H](CCC(=O)O)C(N)=O)[C@@H](C)O)NC(=O)[C@H](CCCNC(=N)N)NC(=O)[C@H](Cc2c[nH]cn2)NC(=O)[C@H](CCC(=O)O)NC(=O)CNC(=O)[C@H](Cc2c[nH]c3ccccc23)NC(=O)[C@H](CC(=O)O)NC(=O)[C@H](CCC(N)=O)NC(=O)[C@H](Cc2c[nH]c3ccccc23)NC1=O [Compound 33] (Ac-EICIWQDWGEHRCTE-NH2; disulfide 3-13) | < 100 | − (denotes lack of solubility at the given condition, as UV absorbance at 340 nm exceeds 0.1 AU and/or it is visibly turbid or contains particles.) | − (denotes lack of solubility at the given condition, as UV absorbance at 340 nm exceeds 0.1 AU and/or it is visibly turbid or contains particles.) | + (denotes solubility at the given condition, as determined by UV absorbance being less than 0.1 AU at 340 nm and the sample being clear when manually inspected.) | + (denotes solubility at the given condition, as determined by UV absorbance being less than 0.1 AU at 340 nm and the sample being clear when manually inspected.) | + (denotes solubility at the given condition, as determined by UV absorbance being less than 0.1 AU at 340 nm and the sample being clear when manually inspected.) |
| CC[C@H](C)[C@@H]1NC(=O)[C@@H](NC(=O)[C@H](Cc2ccccc2)NC(=O)[C@H](C)NC(=O)[C@H](CO)NC(=O)CNC(=O)[C@H](CCC(=O)O)NC(C)=O)CSSC[C@@H](C(=O)N[C@H](C(=O)N[C@@H](CCC(=O)O)C(N)=O)[C@@H](C)O)NC(=O)[C@H](CCCNC(=N)N)NC(=O)[C@H](Cc2c[nH]cn2)NC(=O)[C@H](CCC(=O)O)NC(=O)CNC(=O)[C@H](Cc2c[nH]c3ccccc23)NC(=O)[C@H](CC(=O)O)NC(=O)[C@H](CCC(N)=O)NC(=O)[C@H](Cc2cn(C)c3ccccc23)NC1=O [Compound 57] (Ac-EGSAFCI[Trp(1-Me)]QDWGEHRCTE-NH2; disulfide 6-16) | < 100 | − (denotes lack of solubility at the given condition, as UV absorbance at 340 nm exceeds 0.1 AU and/or it is visibly turbid or contains particles.) | − (denotes lack of solubility at the given condition, as UV absorbance at 340 nm exceeds 0.1 AU and/or it is visibly turbid or contains particles.) | + (denotes solubility at the given condition, as determined by UV absorbance being less than 0.1 AU at 340 nm and the sample being clear when manually inspected.) | + (denotes solubility at the given condition, as determined by UV absorbance being less than 0.1 AU at 340 nm and the sample being clear when manually inspected.) | + (denotes solubility at the given condition, as determined by UV absorbance being less than 0.1 AU at 340 nm and the sample being clear when manually inspected.) |
